Results from US20240352536A1, “Assay for Predicting Risk of Capecitabine-Induced Toxicity in a Subject” (Oxford University Innovation Ltd., priority 2021, published 2024).

Columns and labels:
[1] = target: T1, dihydropyrimidine dehydrogenase (DPYD) (Homo sapiens, UniProt Q12882); conditions: cited from earlier work
T1 construct: degraded in the liver by dihydropyrimidine dehydrogenase (DPYD); host or cells: liver (in vivo, endogenous enzyme)
T1 sequence (Q12882 4-1025): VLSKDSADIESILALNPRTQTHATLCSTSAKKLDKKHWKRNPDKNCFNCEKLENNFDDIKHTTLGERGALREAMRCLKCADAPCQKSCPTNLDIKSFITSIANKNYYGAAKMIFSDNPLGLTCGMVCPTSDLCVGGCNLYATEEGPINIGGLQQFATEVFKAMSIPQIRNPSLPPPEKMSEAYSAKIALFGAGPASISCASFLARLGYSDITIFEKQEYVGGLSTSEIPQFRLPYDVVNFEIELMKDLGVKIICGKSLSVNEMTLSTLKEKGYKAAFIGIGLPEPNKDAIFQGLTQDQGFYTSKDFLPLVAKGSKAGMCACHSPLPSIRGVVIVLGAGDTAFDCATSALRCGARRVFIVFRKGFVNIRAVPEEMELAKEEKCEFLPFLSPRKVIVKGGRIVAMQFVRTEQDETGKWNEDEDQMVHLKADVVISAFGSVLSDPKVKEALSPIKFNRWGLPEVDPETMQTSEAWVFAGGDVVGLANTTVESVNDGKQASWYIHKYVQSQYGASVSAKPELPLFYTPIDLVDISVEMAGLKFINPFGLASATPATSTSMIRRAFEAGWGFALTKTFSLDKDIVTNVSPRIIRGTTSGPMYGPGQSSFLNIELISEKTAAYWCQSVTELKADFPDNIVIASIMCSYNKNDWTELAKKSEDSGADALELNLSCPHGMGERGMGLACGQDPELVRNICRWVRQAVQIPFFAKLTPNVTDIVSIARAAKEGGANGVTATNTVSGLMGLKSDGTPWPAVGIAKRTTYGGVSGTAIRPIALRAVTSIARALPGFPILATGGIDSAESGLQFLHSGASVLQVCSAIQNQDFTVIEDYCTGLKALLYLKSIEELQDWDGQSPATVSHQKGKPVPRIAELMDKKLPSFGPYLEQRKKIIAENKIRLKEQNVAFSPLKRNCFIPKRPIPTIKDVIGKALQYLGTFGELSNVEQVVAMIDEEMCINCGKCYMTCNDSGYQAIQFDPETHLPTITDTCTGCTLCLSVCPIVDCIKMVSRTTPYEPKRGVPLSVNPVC

[2] = cited from earlier work
[3] = QUASAR2 trial: adverse events graded after each treatment cycle with NCI CTCAE version 3.0; format: in vivo, human
Protocol: The QUASAR2 study (http://www.octo-oxford.org.uk/alltrials/infollowup/q2.html; http://www.controlled-trials.com/ISRCTN45133151/) is a phase III randomised controlled trial of capecitabine (Xeloda) (1250 mg/m2 twice daily d1-14 every 3 weeks, total of 8 cycles)+/−bevacizumab (7.5 mg/kg every three weeks) following resection of stage II/III CRC. Patients were entered into the study between July 2005 and December 2011 at 123 UK and 81 non-UK sites. Of 1119 patients with blood collected as of July 2010, 1046 were selected for study based on availability of clinical data and informed consent.
Adverse events were graded following each treatment cycle using the NCI Common Toxicity Criteria for Adverse Events (CTCAE) version 3.0. Common capecitabine-induced toxicities—diarrhoea, nausea and vomiting, mucositis/stomatitis, neutropaenia, thrombocytopaenia, and HFS—were analysed individually and also in combination as “global” toxicity. Adverse events were categorised as low (CTCAE grade 0/1/2) and high (CTCAE grade 3/4/5 at any treatment cycle). Hypertension and proteinuria were clearly related to bevacizumab (˜10-fold higher incidence) and were not included in the analysis.
Genome wide SNP genotypes and per treatment cycle toxicity data was available for 930 patients with stage II and III colorectal cancer treated with capecitabine in the QUASAR2 trial. […] Genotype data was imputed using IMPUTE2 and the UK10K and 1000 genomes merged reference panels. Common Terminology Criteria for Adverse Events (CTCAE) v3.0 was used to grade toxicity events. Patients with ≥grade 3 toxicities in the first two treatment cycles and across all cycles were coded as cases for analysis. Binary coded variables were generated for capecitabine-induced toxicities: diarrhoea, haematological, hand-foot syndrome, mucositis and vomiting. The mucositis toxicity variable captured cases with mucositis and/or stomatitis and haematological toxicity consisted of neutropenia and/or thrombocytopenia cases. A global toxicity phenotype was also analysed with cases having any grade 3 event of one of the aforementioned toxicities. The study was powered at 80% to detect variants with MAF>10% having effect sizes≥2. Association testing was performed using SNPTEST v2.5. The two QUASAR2 trial arms (capecitabine alone and capecitabine plus bevacizumab) were analysed separately and then meta-analysed using META v1.7. […] Gene annotation of the outputs was performed using Variant Effect Predictor (VEP) and ANNOVAR to determine the impact of each variant and distance to the nearest gene. Top independent SNPs were identified from multi-SNP-based conditional and joint association (COJO) analysis using Genome-wide Complex Trait Analysis (GCTA). V1.93.2. Receiver operator curve (ROC) analysis was performed in statistical software R.

[4] = early onset, Cycles 1 & 2 (n = 930), QUASAR 2

O=c1[nH]cc(F)c(=O)[nH]1 [5-FU, 5-fluorouracil]
share of drug degraded in the liver by DPYD prior to activation [1]: ~80%
mortality (Grade 5, CTCAE version 3.0) associated with use ([2]; overall): 0.5-1.0%
patients who suffer substantial toxicities (Grade 3 or above, CTCAE version 3.0) ([2]; patients administered 5-FU-based therapy): 10-30%
fatality rate ([2]; patients with colorectal cancer, serious toxicities from 5-FU): approximately 1%
share of patients who experienced serious (CTCAE≥grade 3) toxicities ([2]; patients with colorectal cancer): Approximately a third

CCCCCOC(=O)Nc1nc(=O)n(C2OC(C)C(O)C2O)cc1F (centres unmarked) [capecitabine, pentyl [1-(3,4-dihydroxy-5-methyltetrahydrofuran-2-yl)-5-fluoro-2-oxo-1H-pyrimidin-4-yl]carbamate]
Diarrhoea, Grade 0-2 (%) [3, 4]: 92.9%
Diarrhoea, Grade 3-4 (%) [3, 4]: 6.9%
Global toxicity, Grade 0-2 (%) [3, 4]: 84.6%
Global toxicity, Grade 3-4 (%) [3, 4]: 15.3%
Haematological toxicity, Grade 0-2 (%) [3, 4]: 98.4%
Haematological toxicity, Grade 3-4 (%) [3, 4]: 1.3%
Hand-foot syndrome, Grade 0-2 (%) [3, 4]: 91.4%
Hand-foot syndrome, Grade 3-4 (%) [3, 4]: 8.3%
Mucositis, Grade 0-2 (%) [3, 4]: 98.7%
Mucositis, Grade 3-4 (%) [3, 4]: 1.1%
Vomiting, Grade 0-2 (%) [3, 4]: 98.7%
Vomiting, Grade 3-4 (%) [3, 4]: 0.9%
share of patients who suffer dose-limiting levels of drug-induced adverse events ([2]; capecitabine patients): approximately one third
mortality from rapid onset of toxicity relative to infusional and bolus 5-FU regimens (0.5% to 2%) ([2]; capecitabine schedules): about half that number

bevacizumab: given with capecitabine in one QUASAR2 arm (7.5 mg/kg every three weeks)
higher incidence of hypertension and proteinuria ([3]; QUASAR2, capecitabine plus bevacizumab arm versus capecitabine alone): ~10 fold
